From the RepoRT retention time repository

Assay: Agilent ZORBAX 300 SB-C18, 150 × 1 mm, 3.5 µm; A: water + 0.01% heptafluorobutyric acid; B: acetonitrile + 0.01% heptafluorobutyric acid; gradient (min/%B) 0/0 100/90
Settings: stereoisomer not certain

LC retention time	SMILES
10.3 min	COc1ccc(NC(=O)c2ccc(N3C(=O)CCC3=O)cc2)cc1
8.21 min	Cc1[nH]n(-c2ccccc2)c(=O)c1C=O
7.85 min	NC1CCc2ccccc21 (configuration not stated)
14.1 min	Cn1c(=O)c(=O)n(CC(=O)c2ccc3c(c2)CCCC3)c2ccccc21
9.78 min	COc1ccc(N2CCCC2=O)cc1
13.1 min	COC(=O)c1ccc(Cn2c(=O)n(C)c(=O)c3ccccc32)cc1
8.76 min	CC(=NNC(=O)C[n+]1ccccc1)c1ccccc1
9.71 min	c1ccc(CNCc2ccccc2)cc1
7.76 min	NC(=O)C1(N2CCCCC2)CCN(C(=O)c2ccccc2)CC1
8.93 min	Cc1ccc(-c2ccccc2)nc1C
16.9 min	Cc1cc(-c2noc(C(c3ccccc3)c3ccccc3)n2)c2ccccc2n1
11.5 min	CNCCCN1c2ccccc2CCc2ccccc21
14.4 min	Cc1cc(C)c2c(=O)n(CC(=O)NCCC(C)C)c(=O)n(-c3ccccc3)c2n1
13.2 min	Cc1ccc2[nH]c3nc4ccccc4nc3c2c1
15.9 min	CC(C)c1ccccc1NC(=O)c1cc2ccccc2o1
9.03 min	Cc1nc2ccccc2c(=O)o1
5.59 min	NC(=O)CNc1ccc(C(N)=O)cc1
7 min	NCc1ccccc1C(=O)O
13.1 min	Cc1cccc(C)c1NC(=S)Nc1ccccc1
13.8 min	O=C(O)C1CCCCC1C(=O)Nc1ccc2c(c1)CCCC2 (configuration not stated)
14.4 min	Cc1ccc(-n2c(C)cc(C=CC(=O)O)c2C)cc1

LC retention time	SMILES
11.2 min	C(=Cc1ccco1)C=NN1CCN(Cc2cccc3ccccc23)CC1
7.33 min	c1cncc(N2CCN(c3cccnc3)CC2)c1
8.65 min	O=CC1C(=O)Nc2ccccc21 (configuration not stated)
17.9 min	Cc1ccc(-c2nc3ccccc3s2)cc1
10.6 min	Nc1cccc(C(=O)O)c1N
12.2 min	C#CC(C)(CC)NC(=O)Cc1ccccc1 (configuration not stated)
6.83 min	Nc1ccccc1C(=O)N1CCNC(=O)C1
9.89 min	CC(COc1ccccc1)NC(C)C(O)c1ccc(O)cc1 (configuration not stated)
10.4 min	CN(C)NC1=CC(=O)CC(c2ccccc2)C1 (configuration not stated)
13.6 min	COc1ccc(C2NNc3nn(-c4ccccc4OC)nc32)cc1 (configuration not stated)
6.67 min	O=C1NCCN1C(=O)c1ccco1
11.6 min	O=C(O)c1cc(-c2ccccc2)nc2ccccc12
8.04 min	CC(C)Nc1ccccc1
6.8 min	Cn1c(=O)n(C)c2cc(N)ccc21
12.5 min	CC(C)c1ccc(CC(NC(=O)c2ccccc2)C(=O)NCC(=O)O)cc1 (configuration not stated)
10.2 min	CC(=O)N1CCc2[nH]c3ccccc3c2C1
13.6 min	Cc1ccc(C(=O)NCCc2c(C)[nH]c3ccccc23)cc1
11.8 min	CCC(=O)c1ccc2c(c1)N(CC(C)N(C)C)c1ccccc1S2 (configuration not stated)
9.29 min	O=C(c1ccccc1O)N1CCCC1
9.48 min	Cc1cc[n+](CCc2ccccc2)cc1C
11.5 min	COc1ccc(CNCc2ccc(C(C)C)cc2)cc1

LC retention time	SMILES
16.5 min	CCCCc1ccc(NC(=O)c2ccc(OC(C)=O)cc2)cc1
10.8 min	Cc1nnc(Oc2ccccc2)c2ccccc12
14.5 min	CC(C)(C)c1ccc(NC(=O)NCc2ccco2)cc1
11.4 min	Cn1c(C(=O)O)cc2ccccc21
9.22 min	O=C1C=CC(=O)N1c1ccc(N2CCCCC2)cc1
15.4 min	S=C(NCc1ccccc1)NCc1ccc2[nH]c3c(c2c1)CCCC3
9.02 min	CC(=O)Nc1nc(=S)n(-c2ccccc2)[nH]1
13.8 min	O=C(Oc1cccc2cccnc12)c1ccccc1
9.56 min	CN1C(=O)NC(c2ccccc2)C2=C1CN(c1ccc(CC(=O)O)cc1)C2=O (configuration not stated)
11.1 min	NC(=O)c1cc2c(ccc3ccccc32)oc1=O
12.4 min	Cc1ccc(-c2cc(C(=O)O)c3ccccc3n2)cc1
12.1 min	Cc1ccc(C)n1-c1ccccc1C(=O)O
17.1 min	O=C(c1cncc(C(=O)N2CCC(Cc3ccccc3)CC2)c1)N1CCC(Cc2ccccc2)CC1
11.7 min	CCn1cc(CCO)c2ccccc21
10.7 min	COc1ccc(NC(C)c2ccccc2)cc1 (configuration not stated)
11.4 min	CC(C)Cn1c(Cc2ccccc2)nc2ccccc21
11 min	Nc1ccc(C(=O)N2CCC(c3ccccc3)C2)cc1 (configuration not stated)
14.5 min	O=C(C=Cc1ccccc1O)c1ccccc1O
7.67 min	O=C(O)c1ccc2nccnc2c1

More lines, now with the values behind:

SMILES	LC retention time
CN1CCCNCC1	6.55 min
CC1C2=C(CC(C)(C)CC2=O)NC2=C1C(=O)CC(C)(C)C2	10.9 min
CSC(=N)N	4.66 min
S=C1NCN(CCC2=CCCCC2)CN1	10.2 min
COc1cc2c(cc1OC)NC(=O)C2	7.73 min
CN(C)c1ccc(C=NNC(=O)Cc2n[nH]c(=O)[nH]c2=O)cc1	8.47 min
C=CCOc1ccccc1OCC(O)CNC(C)C (configuration not stated)	9.94 min
CC(C)C(N)C(C)(C)O (configuration not stated)	7.04 min
Cc1nc2ccccc2[nH]1	7.36 min
CC(=O)CC(C)(C)N	6.26 min
NC1CCNCC1	6.22 min
CCCCC1CCC(C(=O)NCC2(N(C)C)CCCCC2)CC1 (configuration not stated)	12.4 min
Cn1c2nc(=O)[nH]c(=O)c-2nc2ccccc21	8.38 min
Cn1ccc2cc(C=O)ccc21	11.3 min
Cc1cc(=O)[nH]c(N)n1	5.97 min
COc1ccc2c3c1OC1C(=O)CCC4(O)C(C2)N(C)CCC314 (configuration not stated)	8.39 min
Cc1ccc2[nH]cc(C=O)c2c1	9.98 min
CC(=O)Nc1cc(=O)[nH]c(C)n1	5.68 min
CCN(CC)C(=O)N1CCN(C)CC1	7.39 min
CC1=NCCC1	4.35 min
CNCc1cccc(C)c1	8.02 min
COc1ccc2nc(C)c3c(c2c1)OC(C)C3 (configuration not stated)	9.25 min
CN(C)CCCN1CCC(=O)C2CCCCC21 (configuration not stated)	7.52 min
Nc1cccc(N)n1	6.11 min
CC(N)Cc1ccc2oc3ccccc3c2c1 (configuration not stated)	10.1 min
CCCCN	6.72 min

SMILES	LC retention time
CC(=O)NNC(=O)c1ccncc1	3.54 min
CCOC(=O)C(N)CCCN=C(N)N (configuration not stated)	7.25 min
CC(C)(C)C(=N)C(C)(C)C	8.06 min
Cc1ccc(C=C2CN(C)CC(=Cc3ccc(C)cc3C)C2=O)c(C)c1	13.1 min
Cc1ccc(CNC2CCCC2)o1	8.53 min
CCCCCCCCCCCN	12.2 min
CCCN(CCC)CCC	8.17 min
CCCCCCCCCN	11 min
CCCCN1CCCC1	7.55 min
CCCN	4.83 min
Cc1ccc2ccc[n+](C)c2c1	7.88 min
C#CC(C)(C)NC(=O)CCCCCN1C(=O)c2ccccc2C1=O	12.2 min
Cc1cccnn1	5.91 min
COC(=O)CN1CCCC1=O	6.91 min
CCCCNCCCC	8.38 min
NCc1ccccc1CN	7.03 min
Cc1cc(C)c(CO)cc1C=NNC(N)=O	8.66 min
COC(=O)CCc1c(COC(C)=O)[nH]c(C(=O)OCc2ccccc2)c1C	15.1 min
COc1ccc(N=Nc2c(N)n[nH]c2N)cc1	9.61 min
CC[N+](CC)(CC)CCOc1cccc(OCC[N+](CC)(CC)CC)c1OCC[N+](CC)(CC)CC	8.44 min
CCOC(=O)C(=CNc1ccccc1N)C(=O)OCC	12.8 min
Cn1cnc2c1c(=O)[nH]c(=O)n2C	6.5 min
NC(N)=NC(CC(=O)O)C(=O)O (configuration not stated)	2.11 min
CCOc1ccccc1NC(=O)c1cc(=O)[nH]c(=O)[nH]1	9.16 min
O=Cc1cccc2[nH]ccc12	9.79 min
O=S(=O)(O)CCN1CCN(CCO)CC1	1.95 min

SMILES	LC retention time
NCc1ccncc1	6.44 min
c1ccnnc1	4.58 min
CNCCOC	4.63 min
C#CCNC	3.51 min
OCc1cccc(CO)n1	5.64 min
CC(C)C(N)C(=O)O (configuration not stated)	2.86 min
O=C(O)c1n[nH]c(=O)[nH]1	1.25 min
CC1C(=O)CC[N+](C)(C)C1C (configuration not stated)	7.63 min
C[N+]1(CC=C2COCO2)CCCCC1	7.48 min
CCNCC	5.17 min
Nc1ncc2[nH]cnc2n1	5.52 min
CCCCCC[N+](C)(C)C	8.47 min
O=C(CC1NC(=O)N(C2CCCCC2)C1=O)Nc1cccnc1 (configuration not stated)	9.1 min
CC(N)=O	1.61 min
CCN1CCN(Cc2cc(C)cc(C=O)c2C)CC1	9.37 min
Cc1ccccc1N(C)C	7.62 min
C=CC1CN2CCC1CC2C(O)c1ccnc2ccccc12 (configuration not stated)	8.84 min
CCCCOC(=O)c1ccc(NC(=O)CCCC)cc1	16.3 min
COc1cc(Cc2cnc(N)nc2N)cc(OC)c1OC	8.69 min
C[N+](C)(C)CC(=O)O	1.67 min
CN1CCn2c1nc(N1CCOCC1)nc2=O	7.25 min
NC(=O)C1(N2CCCCC2)CCN(C(=O)C2CCCCC2)CC1	8.4 min
Cc1oc(C)c(C(N)=O)c1C(N)=O	6.82 min
CCCCCCCCCCCC[N+](C)(C)CCOc1ccccc1	16.6 min
